The species named for assay [1] is Rattus norvegicus. Put plainly: (§1) Parameter value extracted from closed loop infusions to maintain 60% Mean burst suppression ratio (BSR) for 1 h periods. In kind it is functional, organism-based.
Assay [2] concerns Mus musculus. Put plainly: Anesthetic activity as hypnotic dose by intravenous administration in male MF-1 mice. In kind it is functional.
Assay [3] relates to Mus musculus. Put plainly: Anesthetic activity as hypnotic dose by intravenous administration in male MF-1 mice; Convulsant. In kind it is functional, organism-based.
Assay [4] concerns Mus musculus. Put plainly: Anesthetic activity determined as hypnotic dose by intravenous administration in male MF-1 mice. The class given is functional.
The test system of assay [5] is Rattus norvegicus. Kind of assay: Time to righting for Mean burst suppression ratio (BSR) after the start of a 10 s iv bolus injection of compound. The class given is functional.
The subject of assay [6] is Rattus norvegicus. Kind of assay: Dose for 60% Mean burst suppression ratio (BSR) after the start of a 10 s iv bolus injection of compound. The class given is functional.
Assay [7] deals with Rattus norvegicus. Kind of assay: Time to 30% Mean burst suppression ratio (BSR) after the start of a 10 s iv bolus injection of compound. The class given is functional.
Assay [8] deals with Rattus norvegicus. Put plainly: Time to 1st 0.25 s BS epoch (s) of Mean burst suppression ratio (BSR) after the start of a 10 s iv bolus injection of compound. The class given is functional.
Assay [9] deals with Rattus norvegicus. Put plainly: Time for Mean burst suppression ratio (BSR) after the start of a 10 s iv bolus injection of compound. The class given is functional.
The target in assay [10] is GABA-A receptor; anion channel. Kind of assay: Inhibition of [35S]TBPS binding to GABA-A receptor rat whole brain membranes. The class given is cell membranes.
The species named for assay [11] is Rattus norvegicus. The description is as §1. In kind it is functional.
The species entered for assay [12] is Rattus norvegicus. Kind of assay: Parameter value extracted from closed loop infusions to maintain 60% Mean burst suppression ratio (BSR) for 1 hr periods. The class given is functional.

A value given as a limit tells only on which side of the number the result lay.

The text below walks through data of ChEMBL document CHEMBL1136532, “Novel water soluble 2,6-dimethoxyphenyl ester derivatives with intravenous anaesthetic activity” (Bioorg Med Chem Lett, 2003).

Turning to `COCC(C(=O)Oc1c(OC)cccc1OC)N1CCCOCC1` (single isomer, unassigned; form 1) [listing 1 of 2 here], the Stability of BSR in the assay listed under Rattus norvegicus [1] stood at 2.5%. In turn, `COc1cccc(OC)c1OC(=O)C(CN1CCOCC1)N1CCc2ccccc2C1` (configuration not stated) displayed an HD50 in the assay with Mus musculus [2] of 21 µM/kg. In the case of `CCOCCN(CCOCC)CC(C(=O)Oc1c(OC)cccc1OC)N1CCOCC1` (configuration not stated), the HD50 entry in the assay on Mus musculus [3] is on record as “Convulsant”. `COCCCN(CCCOC)C(COC)C(=O)Oc1c(OC)cccc1OC` (configuration not stated): the HD50 in the assay with Mus musculus [4] turned out to be 46 µM/kg. Turning to `CC(C)c1cccc(C(C)C)c1O` [PROPOFOL], the Time in the assay with Rattus norvegicus [5] is 5.5 min; in the assay with Rattus norvegicus [7], 1.5 min; with Rattus norvegicus [8] it was 13.1 s; in the assay with Rattus norvegicus [9], 30 s. Further, in the assay on Rattus norvegicus [6], the Dose worked out at 41 µM/kg. Besides, the HD50 with Mus musculus [2] came out at 68 µM/kg.

The compound `COCCC(C(=O)Oc1c(OC)cccc1OC)N1CCCOCC1` (single isomer, unassigned; form 1) displayed an HD50 in the assay with Mus musculus [4] of 30 µM/kg. Moreover, in [10], the IC50 was above 100 µM. For `COc1cccc(OC)c1OC(=O)C(CN1CCOCC1)N1CCSCC1` (configuration not stated), the HD50 in the assay on Mus musculus [2] was found to be 19 µM/kg. Still for that read-out and setting: under `COc1cccc(OC)c1OC(=O)C(CN1CCCOCC1)N1CCCOCC1` (configuration not stated) stands below 25 µM/kg.

The compound `COCCC(C(=O)Oc1c(OC)cccc1OC)N1CCCOCC1` (racemic) gave an HD50 with Mus musculus [4] of 20 µM/kg. This compound also registered an IC50 in assay [10] of 69.5 µM.

In the case of `COc1cccc(OC)c1OC(=O)C(CN1CCCCC1)N1CCOCC1` (configuration not stated), the HD50 in the assay with Mus musculus [2] came out at 15 µM/kg.

Compound `COCCC(C(=O)Oc1c(OC)cccc1OC)N1C=CCCC1` (configuration not stated) yielded an HD50 with Mus musculus [4] of 22 µM/kg. In the case of `COCCN(CCOC)CC(C(=O)Oc1c(OC)cccc1OC)N(CCOC)CCOC` (configuration not stated), the HD50 result with Mus musculus [3] was “Convulsant”. `C=CCN1CCN(Cc2ccccc2)C(C(=O)Oc2c(OC)cccc2OC)C1` (configuration not stated): in the assay with Mus musculus [2], the HD50 came to 31 µM/kg. `COCCC(C(=O)Oc1c(OC)cccc1OC)N1CCCOCC1` (single isomer, unassigned; form 2) returned an IC50 in [10] of 32.5 µM.

In the case of `COCC(C(=O)Oc1c(OC)cccc1OC)N1CCOCC1` (configuration not stated), the HD50 in the assay with Mus musculus [4] stood at 54 µM/kg.

Regarding `CCOCCN(CCOCC)C(COC)C(=O)Oc1c(OC)cccc1OC` (configuration not stated), in the assay on Mus musculus [4], the HD50 was determined as 25 µM/kg.

On to `COCC(C(=O)Oc1c(OC)cccc1OC)N1CCSCC1` (configuration not stated), for which the HD50 with Mus musculus [4] was found to be 21 µM/kg. In turn, `CCOCCC(C(=O)Oc1c(OC)cccc1OC)N1CCCOCC1` (stereo in doubt; 39) had an HD50 with Mus musculus [4] of 23 µM/kg.

The compound `COCCC(C(=O)Oc1c(OC)cccc1OC)N1CCC(OC)CC1` (configuration not stated) registered an HD50 with Mus musculus [4] of 21 µM/kg. The compound `COCCC(C(=O)Oc1c(OC)cccc1OC)N1CCOCC1` (configuration not stated) had an HD50 with Mus musculus [4] of 38 µM/kg. Same read-out and setting: the value for `CCOCCC(C(=O)Oc1c(OC)cccc1OC)N1CCCCCC1` (configuration not stated) was 25 µM/kg. Turning to `CCOCCN(CCOCC)CC(C(=O)Oc1c(OC)cccc1OC)N(CCOCC)CCOCC` (configuration not stated), the HD50 result with Mus musculus [3] is listed as “Convulsant”. In turn, `COc1cccc(OC)c1OC(=O)C1CN(C)CCN1Cc1ccccc1` (configuration not stated) displayed an HD50 with Mus musculus [2] of 122 µM/kg. The compound `CCOCCC(C(=O)Oc1c(OC)cccc1OC)N1CCCOCC1` (single isomer, unassigned) had an HD50 with Mus musculus [4] of 48 µM/kg. This compound displayed an IC50 in assay [10] above 100 µM. On to `CCC(=O)N1CCN(Cc2ccccc2)C(C(=O)Oc2c(OC)cccc2OC)C1` (configuration not stated), for which the HD50 with Mus musculus [2] came out at 34 µM/kg.

Compound `COc1cccc(OC)c1OC(=O)C(CN1CCSCC1)N1CCOCC1` (configuration not stated) returned an HD50 in the assay on Mus musculus [2] of 17 µM/kg. As for `COc1cccc(OC)c1OC(=O)C1CNCCN1Cc1ccccc1` (configuration not stated), the HD50 entry with Mus musculus [3] is on record as “Convulsant”.

Regarding `COCC(C(=O)Oc1c(OC)cccc1OC)N1CCCOCC1` (single isomer, unassigned; form 1) [listing 2 of 2 here], the Time is listed as 3.3 min in the assay with Rattus norvegicus [5], 1.3 min in the assay on Rattus norvegicus [7], 12.9 s with Rattus norvegicus [8] and 32 s with Rattus norvegicus [9]. Also, the HD50 in the assay on Mus musculus [4] came to 16 µM/kg. Moreover, the IC50 in [10] came to 35.8 µM. In addition, the Time to righting in the assay listed under Rattus norvegicus [11] was 6.8 min. The Infusion rate in the assay filed under Rattus norvegicus [12] amounted to 5 µM/min/kg. For the same compound, the “Time to 30% BSR” value in the assay filed under Rattus norvegicus [12] was 2.4 min. Moreover, in the assay with Rattus norvegicus [6], the Dose was 11.4 µM/kg. Compound `CCOCCC(C(=O)Oc1c(OC)cccc1OC)N(CCOC)CCOC` (configuration not stated) displayed an HD50 in the assay on Mus musculus [4] of 27 µM/kg. In turn, `COCCN(CCOC)C(CN1CCOCC1)C(=O)Oc1c(OC)cccc1OC` (configuration not stated) displayed an HD50 with Mus musculus [2] of 75 µM/kg.

For `COCCC(C(=O)Oc1c(OC)cccc1OC)N1CCCOCC1` (stereo in doubt; 31), in the assay with Mus musculus [4], the HD50 is 15 µM/kg. In the assay with Mus musculus [2], `COc1cccc(OC)c1OC(=O)C(CN1CCSCC1)N1CCSCC1` (configuration not stated) yielded an HD50 of 15 µM/kg. `CCOCCN(CCOCC)C(CCOC)C(=O)Oc1c(OC)cccc1OC` (configuration not stated): the HD50 in the assay on Mus musculus [4] worked out at 28 µM/kg. In the assay on Mus musculus [4], `COCC(C(=O)Oc1c(OC)cccc1OC)N1CCCOCC1` (single isomer, unassigned; form 2) returned an HD50 of 40 µM/kg. The IC50 in assay [10] amounted to 98.3 µM. `COCCC(C(=O)Oc1c(OC)cccc1OC)N(CCOC)CCOC` (configuration not stated) showed an HD50 with Mus musculus [4] of 27 µM/kg. Still for that read-out and setting: under `COCC(C(=O)Oc1c(OC)cccc1OC)N1CCCCC1` (configuration not stated) stands 146 µM/kg; under `CCOCC(C(=O)Oc1c(OC)cccc1OC)N1CCCOCC1` (configuration not stated), 20 µM/kg; under `CCOCCC(C(=O)Oc1c(OC)cccc1OC)N1CCCOCC1` (stereo in doubt), 15 µM/kg. Still for that read-out and setting: the value for `COCCC(C(=O)Oc1c(OC)cccc1OC)N1CCCCC1` (configuration not stated) was 22 µM/kg. `COc1cccc(OC)c1OC(=O)C(CN1CCOCC1)N1CCOCC1` (configuration not stated) showed an HD50 in the assay with Mus musculus [2] of 38 µM/kg. On the same count and under the same terms, under `CCN1CCN(Cc2ccccc2)C(C(=O)Oc2c(OC)cccc2OC)C1` (configuration not stated) stands 24 µM/kg.

As to `CCOCCC(C(=O)Oc1c(OC)cccc1OC)N(CCOCC)CCOCC` (configuration not stated), the HD50 in the assay on Mus musculus [4] is 47 µM/kg. As to `COCC(C(=O)Oc1c(OC)cccc1OC)N1CCCOCC1` (stereo in doubt; 26), the HD50 with Mus musculus [4] was 30 µM/kg. This compound also had an IC50 in assay [10] of 35 µM. For `CC[C@H](C(=O)Oc1c(OC)cc(C)cc1OC)N(CCOC)CCOC` [ORG-24447], the IC50 in assay [10] was determined as 29.3 µM. This compound yielded an HD50 with Mus musculus [2] of 22 µM/kg. On to `CCOCCC(C(=O)Oc1c(OC)cccc1OC)N1CCCOCC1` (racemic), for which, in assay [10], the IC50 was 34.9 µM. Compound `CCOCCC(C(=O)Oc1c(OC)cccc1OC)N1CCOCC1` (configuration not stated) had an HD50 with Mus musculus [4] of 36 µM/kg.

In the assay with Mus musculus [4], `COCCC(C(=O)Oc1c(OC)cccc1OC)N1CCCCCC1` (configuration not stated) gave an HD50 of 17 µM/kg.

A word on the IC50: it is the midpoint of a concentration-inhibition curve. Low readings indicate higher potency, high ones lower potency.
